Where “and” joins values, the source holds several entries; their conditions need not be identical. Equal entries are not always repeated.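 Protocol summary: plate cells (96-well), add compound at 5 concentrations, incubate 48 h, interpolate endpoints linearly. The concentration for 50% growth inhibition is given as GI50. Definition used: TGI = concentration required for complete inhibition of growth.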
System: MDA-MB-468 breast
Assay: NCI tumour cell line growth inhibition, 48 h

Structure (SMILES)	GI50	TGI
CN(C)S(=O)(=O)c1oc(-c2ccccc2)nc1C#N	12300 nM	32900 nM
OCc1ccc(N2CCOCC2)cc1Cl	732 nM	3100 nM
CCN(CC)c1ccc(/C=C/C2=[N+](C)c3ccccc3C2(C)C)c(C)c1	< 19 nM	181 nM
CCOc1ccc(Nc2c3ccccc3nc3ccccc23)cc1	258 nM and 325 nM	987 nM and 2320 nM
Nc1cc(-c2ccc(Cl)cc2)nn1-c1nnc(/C=C/c2ccco2)c(=O)[nH]1	3080 nM	22200 nM
COc1ccc(-c2cnoc2-c2cc(OC)c3c(c2)OCCO3)cc1	29.6 nM	1030 nM
Fc1ccc2nc(-c3cc(-c4ccc5c(c4)OCO5)n[nH]3)[nH]c2c1	3580 nM	> 80800 nM
CCn1c(-c2nonc2N)nc2ccncc21	> 25000 nM	> 25000 nM
Nn1c(=O)n(-c2cccc(C(F)(F)F)c2)c(=O)c2cc(-c3ccc(F)cc3F)ccc21	1990 nM	6210 nM
[2H]c1nc(=Nc2cc(NC(=O)C=C)c(N(C)CCN(C)C)cc2OC)[nH]c(-c2cn(C([2H])([2H])[2H])c3ccccc23)c1[2H]	28.8 nM	957 nM
COc1ccc(F)c(F)c1C(=O)c1cnc(NC2CCN(S(C)(=O)=O)CC2)nc1N	1370 nM and 687 nM	3540 nM and 2700 nM
CC(C)(C)c1ccc(C(=O)Nc2sc3c(c2C(N)=O)CCC(O)C3)cc1 (stereo not given)	3010 nM	12600 nM
c1ccc(-c2nc(N3CCCNCC3)c3nc(-c4ccccc4)oc3n2)cc1	1720 nM	3370 nM
c1cnn2ncc(-c3ccnc(Nc4ccc5c(c4)OCCO5)n3)c2c1	59.4 nM	180 nM
CCOC(=O)N1CCN(CCCCCOc2ccccc2C2CCCCC2)CC1	2410 nM	8460 nM
COc1cccc(COc2cc(-n3cnc4ccccc43)sc2C(N)=O)c1	717 nM	6170 nM
O=C1/C(=C/c2ccc([N+](=O)[O-])cc2)COc2ccc(O)cc21	2230 nM	7600 nM
CC(C)[O-].CC(C)[O-].CN(CCN(C)Cc1cc(F)cc(F)c1[O-])Cc1cc(F)cc(F)c1[O-].[Ti+4]	542 nM	2880 nM

Structure (SMILES)	GI50	TGI
Cc1ccc(-n2nc(C(C)(C)C)cc2NC(=O)NCc2cc(F)ccc2Oc2ccc3c(cnn3CCO)c2)cc1	6550 nM and 3580 nM	> 65900 nM
CCCCCCCCCCCCCC[n+]1cccc(C(N)=O)c1	567 nM	2560 nM
O=C(c1cccs1)C1NO[N+]([O-])=C1c1cccs1 (stereo not given)	1690 nM	3380 nM
CC(C)Oc1ccc(C(=O)Cn2ccnc2)cc1-n1c(CN2CCN(C(=O)COc3ccc(Cl)cc3)CC2)nc2ccccc2c1=O	9950 nM	35900 nM
COc1ccc(Nc2nccc(N3CCN(c4c5ccc(Cl)cc5nc5ccc(OC)cc45)CC3)n2)cc1	2690 nM	23000 nM
CC(=Nc1ccc(S(N)(=O)=O)cc1)c1c(O)[nH]c2ccccc12	> 25000 nM	> 25000 nM
Clc1nncc2sc(-c3ccccc3)nc12	14400 nM	69500 nM
COc1cc2nc(-c3ccc(C(F)(F)F)cc3)cc(OCCCN3CCCC3)c2cc1OC	1090 nM	3720 nM
COc1ccc(C(=O)c2nc3ccccc3n2CC(=O)c2ccc(Cl)cc2)cc1	2080 nM	11500 nM
CCNCCNc1cc(-c2ccc(C#N)cc2)c(C#N)c2nc3ccccc3n12	1790 nM	4150 nM
O=C(/C=C/c1cccc(O)c1)c1cccc(-n2cc(-c3ccc4ccccc4c3)[nH]c2=O)c1	2860 nM	12800 nM
Clc1ccc2c(c1)N(c1ncnc3ccc(-c4cnc5[nH]ncc5c4)cc13)CC2	217 nM	1470 nM
COc1cccc2c(=O)c3c(sc12)c(NCCCNCCO)nc1ccccc13	1530 nM	3130 nM
CCN(CC)CCOc1ccc(C(=C(C)c2ccc(OC)cc2)c2ccc(OCCN(CC)CC)cc2)cc1	830 nM	1860 nM
O=[N+]([O-])c1ccc(-c2cc3c(Nc4ccc(Cl)c(C(F)(F)F)c4)ncnc3s2)cc1	1640 nM	6030 nM
COc1ccc(C2=C(N3CCc4ccccc43)C(=O)NC2=O)cc1	18000 nM	> 25000 nM
COc1ccc(-n2nc(C)c3c(Nc4ccc(NC(=O)Nc5ccc(Cl)c(C(F)(F)F)c5)cc4)ncnc32)cc1	1880 nM	4620 nM

— PubChem BioAssay (NCI)
